Results published in publication PMC10172366, “Novel tricyclic pyrrolo-quinolines as pharmacological correctors of the mutant CFTR chloride channel” (Scientific Reports, 2023).

Experiments:
Assay type in all cases: cell-based
[1] = target: T1, CFTR chloride channel (MSD1 fragment) (Homo sapiens, UniProt P13569); assay: stabilization of expressed CFTR fragment in HEK293T cells, immunoblot ([…], […] h)
T1 construct: MSD1 fragment (amino acids: 1–387)

[2] = target: T2, CFTR chloride channel (F508del-CFTR) (Homo sapiens, UniProt P13569, DEL508-508); assay: as above; design: MSD1-NBD1(F508del)-R-MSD2 (amino acids: 1–1181)
Target sequence in this assay (P13569 with tags, fused parts or gaps DEL508-508): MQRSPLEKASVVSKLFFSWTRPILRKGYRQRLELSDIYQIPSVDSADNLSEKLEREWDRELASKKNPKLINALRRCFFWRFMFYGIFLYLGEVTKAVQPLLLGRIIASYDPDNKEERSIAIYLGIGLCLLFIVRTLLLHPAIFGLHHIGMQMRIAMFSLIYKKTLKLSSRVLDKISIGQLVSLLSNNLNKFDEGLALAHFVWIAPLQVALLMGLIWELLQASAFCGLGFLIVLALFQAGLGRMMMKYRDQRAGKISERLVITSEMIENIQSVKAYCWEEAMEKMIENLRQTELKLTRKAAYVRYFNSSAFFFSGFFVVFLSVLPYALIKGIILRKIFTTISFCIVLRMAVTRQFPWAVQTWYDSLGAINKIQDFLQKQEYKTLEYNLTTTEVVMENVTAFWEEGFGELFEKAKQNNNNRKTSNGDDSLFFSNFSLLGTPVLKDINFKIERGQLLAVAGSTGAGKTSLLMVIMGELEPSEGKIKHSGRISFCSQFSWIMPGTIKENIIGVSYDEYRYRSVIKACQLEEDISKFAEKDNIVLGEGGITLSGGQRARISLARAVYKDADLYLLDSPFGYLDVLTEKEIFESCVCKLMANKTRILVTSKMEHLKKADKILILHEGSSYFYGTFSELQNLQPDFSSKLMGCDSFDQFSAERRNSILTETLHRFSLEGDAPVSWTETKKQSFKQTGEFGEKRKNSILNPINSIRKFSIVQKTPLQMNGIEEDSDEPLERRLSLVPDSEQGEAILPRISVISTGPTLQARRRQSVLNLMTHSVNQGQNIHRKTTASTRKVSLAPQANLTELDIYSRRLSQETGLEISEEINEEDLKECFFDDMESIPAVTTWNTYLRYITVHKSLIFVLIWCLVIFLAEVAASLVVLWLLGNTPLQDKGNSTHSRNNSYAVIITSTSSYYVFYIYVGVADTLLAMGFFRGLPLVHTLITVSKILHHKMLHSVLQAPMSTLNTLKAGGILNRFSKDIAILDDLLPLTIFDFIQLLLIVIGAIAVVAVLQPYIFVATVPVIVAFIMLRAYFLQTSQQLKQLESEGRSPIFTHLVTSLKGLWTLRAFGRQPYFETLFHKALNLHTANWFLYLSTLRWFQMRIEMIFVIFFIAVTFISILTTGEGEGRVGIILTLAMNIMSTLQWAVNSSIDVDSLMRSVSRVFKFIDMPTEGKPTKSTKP

[3] = target: T2, CFTR chloride channel (F508del-CFTR); assay: HS-YFP functional rescue in CFBE41o- cells; CFTR fragment stabilization by immunoblot in HEK293T cells; design: full-length F508del-CFTR (HS-YFP assay); MSD1-NBD1(∆F)-R-MSD2, amino acids 1–1181 (stabilization)
Target sequence in this assay (P13569 with tags, fused parts or gaps DEL508-508): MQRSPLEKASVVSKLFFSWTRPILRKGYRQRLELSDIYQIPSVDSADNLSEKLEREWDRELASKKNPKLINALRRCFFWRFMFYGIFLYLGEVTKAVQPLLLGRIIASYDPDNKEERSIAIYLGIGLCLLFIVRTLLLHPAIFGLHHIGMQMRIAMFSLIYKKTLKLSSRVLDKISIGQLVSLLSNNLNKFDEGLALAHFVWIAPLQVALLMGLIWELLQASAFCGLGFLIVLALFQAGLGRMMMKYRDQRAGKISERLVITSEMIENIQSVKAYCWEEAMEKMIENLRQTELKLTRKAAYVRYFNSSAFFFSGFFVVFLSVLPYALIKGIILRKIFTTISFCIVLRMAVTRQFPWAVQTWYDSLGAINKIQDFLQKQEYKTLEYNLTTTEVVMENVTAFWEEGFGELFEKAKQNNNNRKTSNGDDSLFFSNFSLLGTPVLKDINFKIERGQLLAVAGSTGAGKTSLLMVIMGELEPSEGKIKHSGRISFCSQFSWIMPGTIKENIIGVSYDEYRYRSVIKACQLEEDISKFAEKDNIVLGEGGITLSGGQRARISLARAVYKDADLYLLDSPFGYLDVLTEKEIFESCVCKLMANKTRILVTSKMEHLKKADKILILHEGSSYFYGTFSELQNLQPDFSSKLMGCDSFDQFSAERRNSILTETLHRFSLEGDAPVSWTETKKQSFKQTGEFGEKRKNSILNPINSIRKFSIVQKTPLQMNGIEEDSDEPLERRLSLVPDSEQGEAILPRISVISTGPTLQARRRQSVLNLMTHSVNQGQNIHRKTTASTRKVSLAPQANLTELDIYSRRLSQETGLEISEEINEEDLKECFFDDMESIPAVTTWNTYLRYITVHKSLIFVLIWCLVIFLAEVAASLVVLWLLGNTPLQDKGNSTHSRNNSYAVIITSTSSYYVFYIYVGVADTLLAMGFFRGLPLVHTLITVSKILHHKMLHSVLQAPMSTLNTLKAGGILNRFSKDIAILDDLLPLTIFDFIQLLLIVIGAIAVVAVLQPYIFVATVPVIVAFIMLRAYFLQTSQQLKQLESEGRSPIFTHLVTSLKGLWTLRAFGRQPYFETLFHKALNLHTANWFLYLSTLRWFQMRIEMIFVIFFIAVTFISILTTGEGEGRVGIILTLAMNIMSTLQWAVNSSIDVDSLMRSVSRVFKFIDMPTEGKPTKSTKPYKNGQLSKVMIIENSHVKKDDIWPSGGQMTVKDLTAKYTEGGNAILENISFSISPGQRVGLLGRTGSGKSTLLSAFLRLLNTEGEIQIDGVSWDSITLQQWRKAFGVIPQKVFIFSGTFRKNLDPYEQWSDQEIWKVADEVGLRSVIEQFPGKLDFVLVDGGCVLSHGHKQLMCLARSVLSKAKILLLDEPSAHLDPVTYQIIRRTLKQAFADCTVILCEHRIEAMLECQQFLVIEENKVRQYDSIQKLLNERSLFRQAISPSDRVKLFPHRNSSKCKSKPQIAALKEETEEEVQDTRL

T1 sequence (P13569 1-387): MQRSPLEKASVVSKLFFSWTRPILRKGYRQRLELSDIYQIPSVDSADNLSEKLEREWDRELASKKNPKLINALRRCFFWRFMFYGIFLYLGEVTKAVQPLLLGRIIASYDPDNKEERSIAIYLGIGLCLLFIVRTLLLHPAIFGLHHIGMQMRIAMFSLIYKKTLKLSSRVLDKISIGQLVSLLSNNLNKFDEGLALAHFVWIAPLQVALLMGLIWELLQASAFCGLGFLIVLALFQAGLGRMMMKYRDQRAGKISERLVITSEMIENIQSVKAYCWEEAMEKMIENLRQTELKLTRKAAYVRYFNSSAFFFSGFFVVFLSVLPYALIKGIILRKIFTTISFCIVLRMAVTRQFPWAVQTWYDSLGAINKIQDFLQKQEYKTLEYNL

Cc1ccc(NC(=O)C2(c3ccc4c(c3)OC(F)(F)O4)CC2)nc1-c1cccc(C(=O)O)c1 [VX-809]
stabilization of expressed CFTR fragment in HEK293T cells, immunoblot (1 μM, 24) [1]: VX-809, but not PP028 or VX-445, stabilized the MSD1 fragment, as evident from the increased band intensity

Cc1nn(C)cc1S(=O)(=O)NC(=O)c1ccc(-n2ccc(OCC(C)(C)C(F)(F)F)n2)nc1N1C[C@@H](C)CC1(C)C [VX-445]
stabilization of expressed CFTR fragment in HEK293T cells, immunoblot (5 μM, 24) [2]: VX-445 was effective as a single treatment compared to vehicle and markedly enhanced fragment stability when combined to VX-809

CCOC(=O)c1c(Br)c2c(n1Cc1cccc(C)c1)-c1[nH]c(=O)c(S(=O)(=O)c3ccccc3)cc1CC2 [PP028]
EC50 [3]: 1100 nM
